Assay results taken from patent publication US20230042509A1, “TREATMENT FOR DISEASES CAUSED BY RNA VIRUSES” (Amerimmune LLC, priority 2021, published 2023).

Tests used:
[1] = in vivo; cited from earlier work
caspase-3 = target: T1, caspase-3 (Homo sapiens, UniProt P42574); test: Caspase-3 in red blood cells incubated with patient plasma; format: cell-based
T1 construct: EMR suppressed the caspase-3 up-regulation in the COVID-19 plasma incubated samples; endogenous in cells; host or cells: red blood cells of healthy subjects incubated with patient plasma
T1 sequence (P42574 29-277): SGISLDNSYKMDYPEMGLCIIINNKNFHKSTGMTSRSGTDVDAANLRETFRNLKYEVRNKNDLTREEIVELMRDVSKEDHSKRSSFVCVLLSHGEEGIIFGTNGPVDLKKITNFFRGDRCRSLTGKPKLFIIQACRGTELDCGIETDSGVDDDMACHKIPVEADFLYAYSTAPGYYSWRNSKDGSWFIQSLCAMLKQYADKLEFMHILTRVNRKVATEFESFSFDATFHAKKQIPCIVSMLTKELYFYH

mild COVID-19 = test: Phase 1 double-blinded placebo-controlled safety and tolerability study in mild-COVID-19 outpatients; format: in vivo, human
Experimental: A double-blinded, placebo-controlled randomized safety and tolerability study (1:1 active:placebo) was performed in a number symptomatic outpatient mild-COVID-19 patients receiving standard of care therapy. A total of 13 patients were enrolled at a single site in New York City. Treatment involved administering Emricasan (EMR) (or placebo) at 25 mg BID dosing for 14 days, with follow-up for an additional month. […] This study was thus designed to evaluate safety and tolerability, with the primary endpoint being the difference, if any, between treatment-related adverse events (AEs), including severe adverse events (SAEs), if any, in the active (EMR) and placebo groups through day 14. The pharmacokinetics (PK) of EMR has been extensively studied in earlier clinical trials. Accordingly, patients in this Phase 1 study were sampled at the end of the study to confirm that Emricasan pharmacokinetics was not altered in COVID-19 patients. Secondary endpoints included various clinical and laboratory measures and patient reported outcomes (PROs) using a COVID-19-related assessment tool.

caspase-1 = caspase-1 (Homo sapiens, UniProt P29466); test: Ex vivo stimulation study: active caspase-1 in CD4 T cells after whole blood incubation with caspase inhibitors (Example 9); format: cell-based; details: whole blood incubated with inhibitor, 24 hrs later with or without nigericin stimulation
[2] = system: PBMCs isolated from COVID-19 patient samples; test: "Red ring" contaminating RBC layer in PBMC preparation; format: cell-based, human; details: 1 micromolar, room temperature, 17 hours
Description: One of the observations made during the preparation of peripheral blood mononuclear cells (PBMC) for some of the experiments described herein was the presence of a contaminating red blood cell (RBC) layer in the PBMC layer, which was referred to as a “red ring”. This “red ring” was present in all COVID-19 patient samples, with no difference between critically ill patients and those who were only on supportive care outside the ICU setting (see FIG. 12A).
When PBMCs isolated from COVID-19 patient samples were incubated with Emricasan (1 micromolar) at room temperature for 17 hours, a decrease in the “red ring” was observed.

Caspase 1 = target: T2, Caspase 1 (Homo sapiens, UniProt P29466); test: FLICA flow cytometry of active caspase-1 in PBMCs from Emricasan-treated COVID-19(+) whole blood (Example 7); format: cell-based; details: 1 μM, 17 hours (overnight) at room temperature on a rocker; 3 samples from COVID-19 patients
T2 sequence (P29466 120-297 limits assumed): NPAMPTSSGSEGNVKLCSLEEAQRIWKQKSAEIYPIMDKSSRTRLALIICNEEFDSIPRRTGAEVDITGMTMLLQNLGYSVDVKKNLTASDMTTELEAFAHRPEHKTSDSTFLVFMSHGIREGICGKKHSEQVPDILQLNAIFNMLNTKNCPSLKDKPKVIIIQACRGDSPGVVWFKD
T2 sequence (P29466 317-404 limits assumed): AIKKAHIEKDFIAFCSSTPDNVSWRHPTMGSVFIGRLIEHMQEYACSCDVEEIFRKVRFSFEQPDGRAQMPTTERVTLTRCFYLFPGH

Row | SMILES | safety and tolerance profile in humans [1] | caspase-3 up-regulation in RBCs (caspase-3; COVID-19 plasma incubated samples) | baseline caspase-3 expression levels in RBCs (caspase-3; influenza-plasma incubated samples) | serious adverse events (mild COVID-19; 25 mg BID for 14 days) | safety and tolerability (mild COVID-19; 25 mg BID for 14 days, 2 weeks of dosing and week 10 follow up, compared to placebo) | resolution of symptoms most commonly associated with mild COVID-19 (cough, headache, fatigue) (mild COVID-19; 25 mg BID for 14 days, at day 7, continued through Day 45, patients who completed treatment) | caspase biomarkers (mild COVID-19; all subjects in the EMR treatment group) | T-helper cell caspase-1 expression in COVID-19 samples (caspase-1) | T-helper cell caspase-1 upregulation in healthy subjects (caspase-1) | "red ring" (contaminating RBC layer) [2] | samples with inhibition of nigericin-induced Caspase-1 activity (Caspase 1)
1 | C[C@H](NC(=O)C(=O)Nc1ccccc1C(C)(C)C)C(=O)N[C@@H](CC(=O)O)C(=O)COc1c(F)c(F)cc(F)c1F [Emricasan, (3S)-3-{[(2S)-2-{[2-(2-tert-butylanilino)-2-oxoacetyl]amino}propanoyl]amino}-4-oxo-5-(2,3,5,6-tetrafluorophenoxy)pentanoic acid] | excellent safety and tolerance profile | suppressed | did not change | no reports of serious adverse events | safe and well tolerated | complete resolution | decreases | suppressed | prevented its upregulation | decrease | ⅓
2 | CCO[C@@H]1OC(=O)C[C@@H]1NC(=O)[C@@H]1CCCN1C(=O)[C@@H](NC(=O)c1ccc(N)c(Cl)c1)C(C)(C)C [VX765] | – | – | – | – | – | – | – | did not show a strong similar suppressive effect | – | – | –
